Source: ChEMBL document CHEMBL3217615, “Novel 3,5-bis(arylidiene)-4-piperidone based monocarbonyl analogs of curcumin: anticancer activity evaluation and mode of action study” (2014)

Tests used:
Format in all cases: functional
[1] = tested on: COLO 205; assay: Induction of apoptosis in human COLO205 cells assessed as DNA fragmentation at 10 uM
[2] = tested on: COLO 205; assay: Induction of apoptosis in human COLO205 cells assessed as caspase 8 activation at 10 uM by FLICA
[3] = Growth inhibition of human OVCAR4 cells assessed as cell growth at 10^-6 M after 48 hrs by sulforhodamine B assay; settings: OVCAR-4, 48 h, read-out: Activity
[4] = tested on: M14; assay: Growth inhibition of human M14 cells assessed as cell growth at 10^-6 M after 48 hrs by sulforhodamine B assay; settings: M14, 48 h, read-out: Activity
[5] = tested on: DU-145; assay: Growth inhibition of human DU145 cells assessed as cell growth at 10^-7 M after 48 hrs by sulforhodamine B assay; settings: DU-145, 48 h, read-out: Activity
[6] = tested on: SK-OV-3; assay: Growth inhibition of human SKOV3 cells assessed as cell growth at 10^-7 M after 48 hrs by sulforhodamine B assay; settings: SK-OV-3, 48 h, read-out: Activity
[7] = tested on: MDA-MB-231; assay: Growth inhibition of human MDA-MB-231 cells assessed as cell growth at 10^-6 M after 48 hrs by sulforhodamine B assay; settings: MDA-MB-231, 48 h, read-out: Activity
[8] = Growth inhibition of human UO31 cells assessed as cell growth at 10^-6 M after 48 hrs by sulforhodamine B assay; settings: UO-31, 48 h, read-out: Activity
[9] = tested on: SK-OV-3; assay: Growth inhibition of human SKOV3 cells assessed as cell growth at 10^-4 M after 48 hrs by sulforhodamine B assay; settings: SK-OV-3, 48 h, read-out: Activity
[10] = Growth inhibition of human OVCAR5 cells assessed as cell growth at 10^-4 M after 48 hrs by sulforhodamine B assay; settings: OVCAR-5, 48 h, read-out: Activity
[11] = Growth inhibition of human OVCAR3 cells assessed as cell growth at 10^-4 M after 48 hrs by sulforhodamine B assay; settings: OVCAR-3, 48 h, read-out: Activity
[12] = tested on: MDA-MB-435; assay: Growth inhibition of human MDA-MB-435 cells assessed as cell growth at 10^-4 M after 48 hrs by sulforhodamine B assay; settings: MDA-MB-435, 48 h, read-out: Activity
[13] = tested on: SW-620; assay: Growth inhibition of human SW620 cells assessed as cell growth at 10^-4 M after 48 hrs by sulforhodamine B assay; settings: SW-620, 48 h, read-out: Activity
[14] = Growth inhibition of human HCC2998 cells assessed as cell growth at 10^-4 M after 48 hrs by sulforhodamine B assay; settings: HCC 2998, 48 h, read-out: Activity
[15] = tested on: K562; assay: Growth inhibition of human K562 cells assessed as cell growth at 10^-4 M after 48 hrs by sulforhodamine B assay; settings: K562, 48 h, read-out: Activity
[16] = tested on: CCRF-CEM; assay: Growth inhibition of human CCRF-CEM cells assessed as cell growth at 10^-4 M after 48 hrs by sulforhodamine B assay; settings: read-out: Activity
[17] = Growth inhibition of human SF295 cells assessed as cell growth at 10^-8 M after 48 hrs by sulforhodamine B assay; settings: SF-295, 48 h; for growth at 0.01 µM: read-out: Activity; for TGI: read-out: pTGI (converted)
[18] = tested on: NCI-H460; assay: Growth inhibition of human NCI-H460 cells assessed as cell growth at 10^-8 M after 48 hrs by sulforhodamine B assay; settings: NCI-H460, 48 h; for growth at 0.01 µM: read-out: Activity; for TGI: read-out: pTGI (converted)
[19] = tested on: MDA-MB-435; assay: Growth inhibition of human MDA-MB-435 cells after 48 hrs by sulforhodamine B assay; settings: MDA-MB-435, 48 h; for CC50: read-out: LC50 (the source's name)
[20] = tested on: SNB-75; assay: Growth inhibition of human SNB75 cells after 48 hrs by sulforhodamine B assay; settings: SNB-75, 48 h; for CC50: read-out: LC50 (the source's name)
[21] = tested on: SF-268; assay: Growth inhibition of human SF268 cells after 48 hrs by sulforhodamine B assay; settings: SF-268, 48 h; for CC50: read-out: LC50 (the source's name)
[22] = tested on: HCT-116; assay: Growth inhibition of human HCT116 cells after 48 hrs by sulforhodamine B assay; settings: HCT-116, 48 h; for CC50: read-out: LC50 (the source's name)
[23] = tested on: COLO 205; assay: Growth inhibition of human COLO205 cells after 48 hrs by sulforhodamine B assay; settings: COLO 205, 48 h; for CC50: read-out: LC50 (the source's name)
[24] = tested on: HOP-62; assay: Growth inhibition of human HOP62 cells after 48 hrs by sulforhodamine B assay; settings: HOP-62, 48 h; for CC50: read-out: LC50 (the source's name)
[25] = tested on: CCRF-CEM; assay: Growth inhibition of human CCRF-CEM cells after 48 hrs by sulforhodamine B assay; settings: for CC50: read-out: LC50 (the source's name)
[26] = Growth inhibition of human UACC257 cells assessed as cell growth at 10^-7 M after 48 hrs by sulforhodamine B assay; settings: UACC-257, 48 h, read-out: Activity
[27] = Growth inhibition of human LOXIMVI cells assessed as cell growth at 10^-7 M after 48 hrs by sulforhodamine B assay; settings: LOX IMVI, read-out: Activity
[28] = tested on: SW-620; assay: Growth inhibition of human SW620 cells assessed as cell growth at 10^-7 M after 48 hrs by sulforhodamine B assay; settings: SW-620, 48 h, read-out: Activity
[29] = tested on: NCI-H322M; assay: Growth inhibition of human NCI-H322M cells assessed as cell growth at 10^-7 M after 48 hrs by sulforhodamine B assay; settings: read-out: Activity
[30] = Growth inhibition of human HOP92 cells assessed as cell growth at 10^-7 M after 48 hrs by sulforhodamine B assay; settings: HOP-92, 48 h, read-out: Activity
[31] = tested on: K562; assay: Growth inhibition of human K562 cells assessed as cell growth at 10^-7 M after 48 hrs by sulforhodamine B assay; settings: K562, 48 h, read-out: Activity
[32] = tested on: SK-OV-3; assay: Growth inhibition of human SKOV3 cells assessed as cell growth at 10^-8 M after 48 hrs by sulforhodamine B assay; settings: SK-OV-3, 48 h; for growth at 0.01 µM: read-out: Activity; for TGI: read-out: pTGI (converted)
[33] = Growth inhibition of human NCI-ADR-RES cells assessed as cell growth at 10^-8 M after 48 hrs by sulforhodamine B assay; settings: for growth at 0.01 µM: read-out: Activity; for TGI: read-out: pTGI (converted)
[34] = Growth inhibition of human OVCAR3 cells assessed as cell growth at 10^-8 M after 48 hrs by sulforhodamine B assay; settings: OVCAR-3, 48 h; for growth at 0.01 µM: read-out: Activity; for TGI: read-out: pTGI (converted)

**Q.** What does the source list for `O=C1/C(=C/c2ccc(Cl)cc2Cl)CN(S(=O)(=O)c2ccccc2)C/C1=C\c1ccc(Cl)cc1Cl`?
**A.** Activity [1]: 45%; Activity [2]: 23%; growth at 1 µM [3]: 10%; growth at 1 µM [4]: 93%; growth at 0.1 µM [5]: 110%; growth at 0.1 µM [6]: 102%; growth at 1 µM [7]: 26%; growth at 1 µM [8]: -22%; growth at 100 µM [9]: 24%; growth at 100 µM [10]: -2%; growth at 100 µM [11]: -65%; growth at 100 µM [12]: -9%; growth at 100 µM [13]: -27%; growth at 100 µM [14]: -66%; growth at 100 µM [15]: 3%; growth at 100 µM [16]: -19%; GI50 [17]: 0.347 µM; LC50 [17]: > 100 µM; growth at 0.01 µM [17]: 91%; TGI [17]: 6.61 µM; GI50 [18]: 0.209 µM; LC50 [18]: 0.955 µM; growth at 0.01 µM [18]: 103%; TGI [18]: 0.447 µM; GI50 [19]: 0.985 µM; TGI [19]: 3.21 µM; CC50 [19]: > 100 µM; GI50 [20]: 0.432 µM; TGI [20]: 7.29 µM; CC50 [20]: > 100 µM; GI50 [21]: 0.447 µM; TGI [21]: > 100 µM; CC50 [21]: > 100 µM; GI50 [22]: 0.198 µM; TGI [22]: 0.424 µM; CC50 [22]: 0.908 µM; GI50 [23]: 0.424 µM; TGI [23]: 2.01 µM; CC50 [23]: > 100 µM; GI50 [24]: 0.385 µM; TGI [24]: > 100 µM; CC50 [24]: > 100 µM; GI50 [25]: 0.286 µM; TGI [25]: 0.994 µM; CC50 [25]: > 100 µM; growth at 0.1 µM [26]: 90%; growth at 0.1 µM [27]: 89%; growth at 0.1 µM [28]: 96%; growth at 0.1 µM [29]: 123%; growth at 0.1 µM [30]: 77%; growth at 0.1 µM [31]: 99%; GI50 [32]: 7.94 µM; LC50 [32]: > 100 µM; growth at 0.01 µM [32]: 109%; TGI [32]: > 100 µM; GI50 [33]: 1.38 µM; LC50 [33]: > 100 µM; growth at 0.01 µM [33]: 105%; TGI [33]: > 100 µM; GI50 [34]: 0.309 µM; LC50 [34]: 5.01 µM; growth at 0.01 µM [34]: 112%; TGI [34]: 0.813 µM

**Q.** What does the source list for `Cc1ccc(S(=O)(=O)N2C/C(=C\c3cc(F)cc(F)c3)C(=O)/C(=C/c3cc(F)cc(F)c3)C2)cc1`?
**A.** Activity [1]: 69.5%; Activity [2]: 61%; growth at 1 µM [3]: 26%; growth at 1 µM [4]: 12%; growth at 0.1 µM [5]: 111%; growth at 0.1 µM [6]: 106%; growth at 1 µM [7]: -11%; growth at 1 µM [8]: 55%; growth at 100 µM [9]: -68%; growth at 100 µM [10]: -90%; growth at 100 µM [11]: -98%; growth at 100 µM [12]: -83%; growth at 100 µM [13]: -74%; growth at 100 µM [14]: -95%; growth at 100 µM [15]: -41%; growth at 100 µM [16]: -29%; GI50 [17]: 0.468 µM; LC50 [17]: 15.8 µM; growth at 0.01 µM [17]: 92%; TGI [17]: 2.51 µM; GI50 [18]: 0.832 µM; LC50 [18]: 9.12 µM; growth at 0.01 µM [18]: 103%; TGI [18]: 2.88 µM; GI50 [19]: 0.241 µM; TGI [19]: 0.685 µM; CC50 [19]: 3.63 µM; GI50 [20]: 1.99 µM; TGI [20]: 5.9 µM; CC50 [20]: 26.2 µM; GI50 [21]: 0.431 µM; TGI [21]: 2.15 µM; CC50 [21]: 14.4 µM; GI50 [22]: 0.209 µM; TGI [22]: 0.543 µM; CC50 [22]: 1.94 µM; GI50 [23]: 0.612 µM; TGI [23]: 2.11 µM; CC50 [23]: 6.14 µM; GI50 [24]: 2.04 µM; TGI [24]: 4.64 µM; CC50 [24]: 11.9 µM; GI50 [25]: 0.0748 µM; TGI [25]: 0.951 µM; CC50 [25]: > 100 µM; growth at 0.1 µM [26]: 87%; growth at 0.1 µM [27]: 92%; growth at 0.1 µM [28]: 42%; growth at 0.1 µM [29]: 103%; growth at 0.1 µM [30]: 69%; growth at 0.1 µM [31]: 44%; GI50 [32]: 1.82 µM; LC50 [32]: 37.2 µM; growth at 0.01 µM [32]: 103%; TGI [32]: 5.62 µM; GI50 [33]: 0.437 µM; LC50 [33]: 75.9 µM; growth at 0.01 µM [33]: 104%; TGI [33]: 10.2 µM; GI50 [34]: 0.437 µM; LC50 [34]: 4.57 µM; growth at 0.01 µM [34]: 110%; TGI [34]: 1.45 µM
